For 79 compounds, EC50 results are on record in PubChem BioAssay AID602427 (Sanford-Burnham Center for Chemical Genomics, 2012).

Active and inactive are the calls of the source.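 The calls were made as follows: active = EC50 at or below 20 micromolar; inactive = the rest.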

In the assay the target is Neurotensin receptor type 1 (Homo sapiens) (UniProt P30989). The experiment in a line: NTSR1 activation via enzyme-fragment complementation – cell-based, luminescence, CHO-K1 NTSR1 PathHunter, orthogonal assay for NTR1 agonist project, SAR follow-up (AID 602427).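 Also: agonist potency for NTR1 activation where higher luminescence means more arrestin recruitment.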 Particulars: CHO-K1 NTSR1 PathHunter beta-arrestin.
Neurotensin receptor type 1 (Homo sapiens), sequence (P30989 whole entry, looked up, the tested form may be a part): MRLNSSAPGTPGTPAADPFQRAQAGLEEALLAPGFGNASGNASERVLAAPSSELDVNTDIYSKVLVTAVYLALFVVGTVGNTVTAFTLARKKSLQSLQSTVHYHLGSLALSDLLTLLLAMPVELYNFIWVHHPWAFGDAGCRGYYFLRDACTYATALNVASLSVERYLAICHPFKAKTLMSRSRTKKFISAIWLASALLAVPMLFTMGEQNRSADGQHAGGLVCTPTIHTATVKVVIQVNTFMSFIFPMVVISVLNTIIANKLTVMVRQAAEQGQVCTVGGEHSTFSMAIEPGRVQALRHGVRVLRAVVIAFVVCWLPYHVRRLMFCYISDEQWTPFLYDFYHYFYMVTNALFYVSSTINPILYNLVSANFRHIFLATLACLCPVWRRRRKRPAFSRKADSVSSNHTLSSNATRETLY
Regarding `Cc1ccc(-n2ncc3c(N4CCN(c5ccc(Cl)c(Cl)c5)CC4)ncnc32)c(C)c1`, the EC50 was > 33 µM (inactive).

As to `COc1ccc(Cn2c(SCc3cc(C)ccc3C)nc3cc(OC)c(OC)cc3c2=N)cc1Cl`, the EC50 was > 33 µM (inactive).

Consider `COc1cc2c3nnc(-c4ccc(F)cc4)c-3cn(Cc3ccncc3)c2cc1OC`, for which the EC50 was > 33 µM (inactive).

On to `Cc1ccc(-n2ncc3c(N4CCN(c5cc(C)ccc5C)CC4)ncnc32)c(C)c1`, for which the EC50 was > 33 µM (inactive).

For `Cc1ccc(-c2nnc3c4cc5c(cc4n(Cc4ccc(F)cc4)cc2-3)OCO5)cc1`, the EC50 is > 33 µM (inactive).

As to `COc1cccc(OC)c1-c1cc(C(=O)NC2(C(=O)O)C3CC4CC(C3)CC2C4)nn1-c1ccnc2cc(Cl)ccc12` (centres undefined), the EC50 is > 33 µM (inactive).

In the case of `COc1cc2nc(-c3ccccc3)nc(N3CCN(c4ccc(Cl)cc4)CC3)c2cc1OC`, the EC50 is > 33 µM (inactive).

Turning to `COc1cc2nc(-c3ccccc3)nc(N3CCN(c4ccccc4F)CC3)c2cc1OC`, the EC50 is > 33 µM (inactive).

Regarding `O=S(=O)(c1ccc(-c2csc(N/N=C/c3ccco3)n2)cc1)N1CCOCC1`, the EC50 is > 33 µM (inactive).

Take `CC(C)C[C@H](NC(=O)c1nc(-c2ccncc2)c(-c2ccccc2)s1)C(=O)O`: the EC50 was > 33 µM (inactive).

Take `CC(C)C[C@H](NC(=O)c1cn(-c2ccnc3cc(Cl)ccc23)c2ccccc12)C(=O)O`: the EC50 was > 33 µM (inactive).

Take `CC(=O)c1ccc(N2CCN(c3ncnc4c3cnn4-c3ccc(C)cc3C)CC2)cc1`: the EC50 was > 33 µM (inactive).

On to `Clc1ccc(-c2nnc3c4cc5c(cc4n(Cc4ccccc4)cc2-3)OCO5)cc1`, for which the EC50 was > 33 µM (inactive).

Turning to `COc1ccc(-c2nnc3c4ccccc4n(Cc4ccc(C)cc4)cc2-3)cc1`, the EC50 is > 33 µM (inactive).

As for `c1ccc(Cn2cc3c(-c4ccccc4)nnc-3c3ccccc32)cc1`, the EC50 is > 33 µM (inactive).

With `Clc1cccc(-n2ncc3c(N4CCN(c5ccccc5)CC4)ncnc32)c1`, the EC50 is > 33 µM (inactive).

In the case of `COc1ccc(-n2ncc3c(N4CCN(c5ccccc5)CC4)ncnc32)cc1`, the EC50 was > 33 µM (inactive).

`COc1cc2nc(-c3ccccc3)nc(N3CCN(c4ccc(F)cc4)CC3)c2cc1OC`: the EC50 is > 33 µM (inactive).

For `COc1ccc(Cn2c(SCc3ccc(C)cc3)nc3cc(OC)c(OC)cc3c2=N)cc1Cl`, the EC50 was > 33 µM (inactive).

`COc1ccc(-c2nnc3c4ccccc4n(Cc4ccccc4)cc2-3)cc1`: the EC50 was > 33 µM (inactive).

Regarding `Cc1ccc(C)c(-n2ncc3c(N4CCN(c5ccccc5)CC4)ncnc32)c1`, the EC50 is > 33 µM (inactive).

Regarding `COc1ccc(Cn2c(SCc3ccccc3)nc3cc(OC)c(OC)cc3c2=N)cc1Cl`, the EC50 was > 33 µM (inactive).

Turning to `COc1cc2nc(SCc3ccncc3)n(Cc3cccc(C(F)(F)F)c3)c(=N)c2cc1OC`, the EC50 was > 33 µM (inactive).

Consider `COc1ccc(C(=O)c2cn(Cc3ccc(N(C)C)cc3)c3ccccc3c2=O)cc1`, for which the EC50 was > 33 µM (inactive).

With `COc1ccc2nc(C3CCC3)nc(N3CCN(c4ccccc4OC)CC3)c2c1`, the EC50 result was “inactive”.

`COc1cc2c3nnc(-c4ccc(F)cc4)c-3cn(Cc3cccc(N(C)C)c3)c2cc1OC`: the EC50 was > 33 µM (inactive).

Consider `COc1cc2c3nnc(-c4ccc(Cl)cc4)c-3cn(Cc3ccccc3)c2cc1OC`, for which the EC50 was > 33 µM (inactive).

Turning to `CC(C)C[C@H](NC(=O)c1cn(-c2ccnc3ccccc23)c2ccccc12)C(=O)O`, the EC50 is > 33 µM (inactive).

For the compound `COc1ccc(-c2nnc3c4cc(OC)c(OC)cc4n(Cc4ccc(F)cc4)cc2-3)cc1`, the EC50 is > 33 µM (inactive).

Consider `CN(C)S(=O)(=O)c1ccc(-c2csc(N/N=C/c3ccc(C(C)(C)C)cc3)n2)cc1`, for which the EC50 was > 33 µM (inactive).

Turning to `COc1ccc(C(=O)c2cn(Cc3ccc(OC(F)(F)F)cc3)c3ccccc3c2=O)cc1`, the EC50 is > 33 µM (inactive).

As to `COc1cc2c3nnc(-c4ccc(F)cc4)c-3cn(Cc3ccc(Cl)cc3)c2cc1OC`, the EC50 is > 33 µM (inactive).

Turning to `COc1ccccc1-c1nc(C(=O)N[C@@H](CC(C)C)C(=O)O)cn1-c1ccncc1`, the EC50 is > 33 µM (inactive).

Take `COc1ccc(-c2nc(C(=O)N[C@@H](CC(C)C)C(=O)O)cn2-c2ccnc3cc(Cl)ccc23)c(OC)c1`: the EC50 is > 33 µM (inactive).

Take `O=S(=O)(c1ccc(-c2csc(N/N=C/c3ccco3)n2)cc1)N1CCCC1`: the EC50 is > 33 µM (inactive).

Consider `COc1ccccc1-c1cc(C(=O)O)nn1-c1ccnc2cc(Cl)ccc12`, for which the EC50 is > 33 µM (inactive).

Take `COc1ccc(N2CCN(c3nc(C4CCC4)nc4cc(OC)c(OC)cc34)CC2)cc1`: the EC50 was > 33 µM (inactive).

For the compound `COc1cc2c3nnc(-c4ccc(Cl)cc4)c-3cn(Cc3ccc(C)cc3)c2cc1OC`, the EC50 is > 33 µM (inactive).

Consider `CC(C)C[C@H](NC(=O)c1cn(-c2ccnc3ccccc23)c(-c2ccccc2)n1)C(=O)O`, for which the EC50 was > 33 µM (inactive).

For `COc1ccc(-c2nnc3c4cc(OC)c(OC)cc4n(Cc4ccc(C)cc4)cc2-3)cc1`, the EC50 was 15.5 µM.

As for `COc1ccccc1N1CCN(c2nc(C3CCC3)nc3cc4c(cc23)OCO4)CC1`, the EC50 was > 33 µM (inactive).

Regarding `COc1cc2c(=O)c(C(=O)c3ccc(F)cc3)cn(CC3CC3)c2cc1OC`, the EC50 was > 33 µM (inactive).

As to `COc1ccc(Cn2cc3c(-c4ccc(F)cc4)nnc-3c3cc(OC)c(OC)cc32)cc1`, the EC50 is > 33 µM (inactive).

Turning to `CCOc1cc2c(N3CCN(c4ccccc4OC)CC3)nc(-c3ccc(OC)c(OC)c3)nc2cc1OC`, the EC50 is > 33 µM (inactive).

In the case of `COc1cccc(OC)c1-c1nc(C(=O)NC2(C(=O)O)C3CC4CC(C3)CC2C4)cn1-c1ccnc2cc(Cl)ccc12` (centres undefined), the EC50 was > 33 µM (inactive).

In the case of `COc1ccc(-c2nnc3c4ccccc4n(CC4CC4)cc2-3)cc1`, the EC50 was > 33 µM (inactive).

For the compound `COc1cc2nc(C3CCCC3)nc(N3CCN(c4ccccc4OC)CC3)c2cc1OC`, the EC50 result is “inactive”.

`COc1ccc2c3nnc(-c4ccc(C)cc4)c-3cn(Cc3ccccc3)c2c1`: the EC50 was > 33 µM (inactive).

`Fc1ccc(Cn2cc3c(-c4ccc(Cl)cc4)nnc-3c3cc4c(cc32)OCO4)cc1`: the EC50 is > 33 µM (inactive).

`COc1ccccc1N1CCN(c2nc(C3CCC3)nc3ccccc23)CC1`: the EC50 was > 33 µM (inactive).

On to `Cc1ccc(-n2ncc3c(N4CCN(c5ccccc5)CC4)ncnc32)c(C)c1`, for which the EC50 is > 33 µM (inactive).

As for `CC(C)C[C@H](NC(=O)c1cn(-c2ccnc3ccccc23)c2c(OCc3ccccc3)cccc12)C(=O)O`, the EC50 result was “inactive”.

`Cc1cc(Cl)ccc1-n1ncc2c(N3CCN(c4ccccc4)CC3)ncnc21`: the EC50 was > 33 µM (inactive).

Consider `COc1ccc(C(=O)c2cn(Cc3ccccc3)c3ccccc3c2=O)cc1`, for which the EC50 is > 33 µM (inactive).

With `Cc1ccc(-n2ncc3c(N4CCN(c5ccccc5Cl)CC4)ncnc32)c(C)c1`, the EC50 was > 33 µM (inactive).

Consider `COc1cc2c3nnc(-c4ccc(Cl)cc4)c-3cn(Cc3ccc(F)cc3)c2cc1OC`, for which the EC50 is > 33 µM (inactive).

On to `COc1ccc(N2CCN(c3ncnc4c3cnn4-c3ccc(C)cc3C)CC2)cc1`, for which the EC50 was > 33 µM (inactive).

On to `COc1cc2c3nnc(-c4ccc(C)cc4)c-3cn(Cc3ccccc3)c2cc1OC`, for which the EC50 entry was “inactive”.

With `COc1cc2c(=O)c(C(=O)c3ccc(F)cc3)cn(Cc3ccc(N(C)C)cc3)c2cc1OC`, the EC50 was > 33 µM (inactive).

On to `COc1cc2ncc3c(-c4ccc(F)cc4)n[nH]c3c2cc1OC`, for which the EC50 was > 33 µM (inactive).

As for `CN(C)S(=O)(=O)c1ccc(-c2csc(N/N=C/c3ccccc3)n2)cc1`, the EC50 was > 33 µM (inactive).

As for `COc1cc2nc(C3CCC3)nc(N3CCN(c4ccccc4)CC3)c2cc1OC`, the EC50 was > 33 µM (inactive).

`CC(C)C[C@H](NC(=O)c1cn(-c2ccncc2)c(-c2ccccc2)n1)C(=O)O`: the EC50 was > 33 µM (inactive).

With `CCOc1cc2nc(-c3ccc(OC)c(OC)c3)nc(N3CCN(c4ccccc4)CC3)c2cc1OC`, the EC50 was > 33 µM (inactive).

For the compound `COc1cc2c3nnc(-c4ccc(C)c(C)c4)c-3cn(Cc3ccc(C)cc3)c2cc1OC`, the EC50 entry was “inactive”.

On to `COc1ccccc1-c1nc(C(=O)N[C@@H](CC(C)C)C(=O)O)cn1-c1ccnc2cc(Cl)ccc12`, for which the EC50 is > 33 µM (inactive).

For `COc1cccc(OC)c1-c1cc(C(=O)NC2(C(=O)O)C3CC4CC(C3)CC2C4)nn1-c1ccc(C(=O)N(C)CCCN(C)C)cc1C(C)C` (centres undefined), the EC50 is > 33 µM (inactive).

Take `CCCSc1nc2cc(OC)c(OC)cc2c(=N)n1Cc1ccccc1Cl`: the EC50 was > 33 µM (inactive).

As to `COc1cc2nc(Cc3ccccc3)nc(N3CCN(c4ccccc4OC)CC3)c2cc1OC`, the EC50 was > 33 µM (inactive).

Regarding `COc1ccc(-c2nnc3c4ccccc4n(Cc4ccc(F)cc4)cc2-3)cc1`, the EC50 was > 33 µM (inactive).

Turning to `CCn1cc2c(-c3ccc(OC)cc3)nnc-2c2ccccc21`, the EC50 is > 33 µM (inactive).

Regarding `CCn1cc(C(=O)c2ccc(OC)cc2)c(=O)c2ccccc21`, the EC50 is > 33 µM (inactive).

With `COc1ccc(-c2nnc3c4ccccc4n(Cc4ccncc4)cc2-3)cc1`, the EC50 is > 33 µM (inactive).

Turning to `COc1ccc(-c2nnc3c4ccccc4n(CCc4ccccc4)cc2-3)cc1`, the EC50 is > 33 µM (inactive).

`COc1ccc2c(c1)c(=O)c(C(=O)c1ccc(F)cc1)cn2Cc1ccccc1`: the EC50 is > 33 µM (inactive).

As for `COc1ccc(Cn2cc(C(=O)c3ccc(OC)cc3)c(=O)c3ccccc32)cc1`, the EC50 was > 33 µM (inactive).

As for `Cc1ccc(Cn2cc3c(-c4ccc(F)cc4)nnc-3c3ccccc32)cc1`, the EC50 was > 33 µM (inactive).

As for `COc1cc2c3nnc(-c4ccccc4)c-3cn(Cc3ccccc3)c2cc1OC`, the EC50 was > 33 µM (inactive).

As for `COc1cccc(OC)c1-c1cc(C(=O)O)nn1-c1ccnc2cc(Cl)ccc12`, the EC50 is > 33 µM (inactive).
